In PubChem BioAssay AID2060487 (Molecular Pharmacology Branch, DTP, NCI, 2025):

Tested on: 997537-175-T-J1-PDC complex spheroid viability
Assay: Anticancer human tumor 997537-175-T-J1-PDC patient-derived colon adenocarcinoma cell line growth inhibition [GQUAD]
Details: for IC50: curve of first compound; for viability, T/C: stronger effect = lower value; active means viability on the fitted dose curve at most 10% of control; inactive means the rest
Procedure, shortened: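 Tumor cells were grown as complex spheroids with HUVEC endothelial cells and mesenchymal stem cells as stroma. G-quadruplex stabilizers were combined with targeted agents over half-log dilutions from near the clinical Cmax, or from 10 microM.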

[1] = second compound 0.0316 µM, first compound 0.0316 µM
[2] = second compound 0.0316 µM, first compound 0.1 µM
[3] = second compound 0.0316 µM, first compound 0.316 µM
[4] = second compound 0.0316 µM, first compound 1 µM
[5] = second compound 0.0316 µM, first compound 3.16 µM
[6] = second compound 0.0316 µM, first compound 10 µM
[7] = second compound 0.1 µM, first compound 0.0316 µM
[8] = second compound 0.1 µM, first compound 0.1 µM
[9] = second compound 0.1 µM, first compound 0.316 µM
[10] = second compound 0.1 µM, first compound 1 µM
[11] = second compound 0.1 µM, first compound 3.16 µM
[12] = second compound 0.1 µM, first compound 10 µM
[13] = second compound 0.316 µM, first compound 0.0316 µM
[14] = second compound 0.316 µM, first compound 0.1 µM
[15] = second compound 0.316 µM, first compound 0.316 µM
[16] = second compound 0.316 µM, first compound 1 µM
[17] = second compound 0.316 µM, first compound 3.16 µM
[18] = second compound 0.316 µM, first compound 10 µM
[19] = second compound 1 µM, first compound 0.0316 µM
[20] = second compound 1 µM, first compound 0.1 µM
[21] = second compound 1 µM, first compound 0.316 µM
[22] = second compound 1 µM, first compound 1 µM
[23] = second compound 1 µM, first compound 3.16 µM
[24] = second compound 1 µM, first compound 10 µM
[25] = second compound 3.16 µM, first compound 0.0316 µM
[26] = second compound 3.16 µM, first compound 0.1 µM
[27] = second compound 3.16 µM, first compound 0.316 µM
[28] = second compound 3.16 µM, first compound 1 µM
[29] = second compound 3.16 µM, first compound 3.16 µM
[30] = second compound 3.16 µM, first compound 10 µM
[31] = second compound 10 µM, first compound 0.0316 µM
[32] = second compound 10 µM, first compound 0.1 µM
[33] = second compound 10 µM, first compound 0.316 µM
[34] = second compound 10 µM, first compound 1 µM
[35] = second compound 10 µM, first compound 3.16 µM
[36] = second compound 10 µM, first compound 10 µM
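Further: spheroids exposed to the agents for 7 days.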
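Wherever viability, T/C is given: 100% = DMSO vehicle control viability.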

CC(=O)O[C@H]1C(=O)[C@@]2(C)[C@H]([C@H](OC(=O)c3ccccc3)[C@]3(O)C[C@H](OC(=O)[C@H](O)[C@@H](NC(=O)c4ccccc4)c4ccccc4)C(C)=C1C3(C)C)[C@]1(OC(C)=O)CO[C@@H]1C[C@@H]2O + CN(C)c1ccc(Nc2c3ccc(NC(=O)CCN4CCCC4)cc3nc3cc(NC(=O)CCN4CCCC4)ccc23)cc1
59 nM: IC50 (second compound 10 µM)
74.6 nM: IC50 (second compound 0.316 µM)
79.1 nM: IC50 (second compound 0.0316 µM)
53.1 nM: IC50 (second compound 1 µM)
inactive: viability, T/C [1] 75.2% | viability, T/C [2] 43.6% | viability, T/C [3] 28.1% | viability, T/C [4] 21.5% | viability, T/C [5] 32.2% | viability, T/C [6] 29.4% | viability, T/C [7] 67.3% | viability, T/C [8] 40.9% | viability, T/C [9] 36.9% | viability, T/C [10] 21.1% | viability, T/C [11] 30.7% | viability, T/C [12] 34.9% | viability, T/C [13] 78.3% | viability, T/C [14] 36.5% | viability, T/C [15] 34.5% | viability, T/C [16] 19.4% | viability, T/C [17] 16.6% | viability, T/C [18] 21.1% | viability, T/C [19] 71.6% | viability, T/C [20] 9.98% | viability, T/C [21] 35.1% | viability, T/C [22] 18.1% | viability, T/C [23] 29.6% | viability, T/C [24] 24.8% | viability, T/C [25] 37.7% | viability, T/C [26] 45.5% | viability, T/C [27] 31.9% | viability, T/C [28] 18.1% | viability, T/C [29] 20.1% | viability, T/C [30] 41.8% | viability, T/C [31] 72% | viability, T/C [32] 28.8% | viability, T/C [33] 34.4% | viability, T/C [34] 35.7% | viability, T/C [35] 29.8% | viability, T/C [36] 27.3%
< 31.6 nM: IC50 (second compound 3.16 µM)
67.7 nM: IC50 (second compound 0.1 µM)

CCCS(=O)(=O)Nc1ccc(F)c(C(=O)c2c[nH]c3ncc(-c4ccc(Cl)cc4)cc23)c1F + CN(C)c1ccc(Nc2c3ccc(NC(=O)CCN4CCCC4)cc3nc3cc(NC(=O)CCN4CCCC4)ccc23)cc1
4100 nM: IC50 (second compound 0.316 µM)
4720 nM: IC50 (second compound 1 µM)
5840 nM: IC50 (second compound 10 µM)
2180 nM: IC50 (second compound 0.0316 µM)
7030 nM: IC50 (second compound 3.16 µM)
inactive: viability, T/C [1] 93.9% | viability, T/C [2] 75.3% | viability, T/C [3] 60.8% | viability, T/C [4] 78.6% | viability, T/C [5] 38.4% | viability, T/C [6] 24.5% | viability, T/C [7] 105% | viability, T/C [8] 73.1% | viability, T/C [9] 75.4% | viability, T/C [10] 70.6% | viability, T/C [11] 52.1% | viability, T/C [12] 32.7% | viability, T/C [13] 71.3% | viability, T/C [14] 72.9% | viability, T/C [15] 81.3% | viability, T/C [16] 62.9% | viability, T/C [17] 59.4% | viability, T/C [18] 23.9% | viability, T/C [19] 67% | viability, T/C [20] 55% | viability, T/C [21] 81.7% | viability, T/C [22] 43.3% | viability, T/C [23] 65.4% | viability, T/C [24] 26.9% | viability, T/C [25] 70.3% | viability, T/C [26] 63.5% | viability, T/C [27] 85.1% | viability, T/C [28] 39.9% | viability, T/C [29] 78.9% | viability, T/C [30] 42.3% | viability, T/C [31] 71.3% | viability, T/C [32] 62.6% | viability, T/C [33] 63.5% | viability, T/C [34] 56% | viability, T/C [35] 74.9% | viability, T/C [36] 36.4%
3140 nM: IC50 (second compound 0.1 µM)

CC[C@@]1(O)C(=O)OCc2c1cc1n(c2=O)Cc2cc3c(CN(C)C)c(O)ccc3nc2-1 + CN(C)c1ccc(Nc2c3ccc(NC(=O)CCN4CCCC4)cc3nc3cc(NC(=O)CCN4CCCC4)ccc23)cc1
> 316 nM: IC50 (second compound 0.0316 µM) | IC50 (second compound 0.1 µM) | IC50 (second compound 0.316 µM) | IC50 (second compound 1 µM) | IC50 (second compound 3.16 µM) | IC50 (second compound 10 µM)
inactive: viability, T/C (second compound 0.0316 µM, first compound 0.000999 µM) 90% | viability, T/C (second compound 0.0316 µM, first compound 0.00316 µM) 84.8% | viability, T/C (second compound 0.0316 µM, first compound 0.00999 µM) 86.4% | viability, T/C [1] 61.1% | viability, T/C (second compound 0.0316 µM, first compound 0.0999 µM) 82.5% | viability, T/C [3] 64.2% | viability, T/C (second compound 0.1 µM, first compound 0.000999 µM) 99% | viability, T/C (second compound 0.1 µM, first compound 0.00316 µM) 103% | viability, T/C (second compound 0.1 µM, first compound 0.00999 µM) 92.3% | viability, T/C [7] 86.2% | viability, T/C (second compound 0.1 µM, first compound 0.0999 µM) 76.8% | viability, T/C [9] 63.3% | viability, T/C (second compound 0.316 µM, first compound 0.000999 µM) 82.3% | viability, T/C (second compound 0.316 µM, first compound 0.00316 µM) 81.9% | viability, T/C (second compound 0.316 µM, first compound 0.00999 µM) 87.3% | viability, T/C [13] 97.8% | viability, T/C (second compound 0.316 µM, first compound 0.0999 µM) 91.5% | viability, T/C [15] 69.3% | viability, T/C (second compound 1 µM, first compound 0.000999 µM) 79.3% | viability, T/C (second compound 1 µM, first compound 0.00316 µM) 91.1% | viability, T/C (second compound 1 µM, first compound 0.00999 µM) 108% | viability, T/C [19] 90.6% | viability, T/C (second compound 1 µM, first compound 0.0999 µM) 96.9% | viability, T/C [21] 68.9% | viability, T/C (second compound 3.16 µM, first compound 0.000999 µM) 63.8% | viability, T/C (second compound 3.16 µM, first compound 0.00316 µM) 79.7% | viability, T/C (second compound 3.16 µM, first compound 0.00999 µM) 90.4% | viability, T/C [25] 86.4% | viability, T/C (second compound 3.16 µM, first compound 0.0999 µM) 95.2% | viability, T/C [27] 65.9% | viability, T/C (second compound 10 µM, first compound 0.000999 µM) 86.3% | viability, T/C (second compound 10 µM, first compound 0.00316 µM) 88.6% | viability, T/C (second compound 10 µM, first compound 0.00999 µM) 98.7% | viability, T/C [31] 103% | viability, T/C (second compound 10 µM, first compound 0.0999 µM) 99.6% | viability, T/C [33] 73.3%
